# PubChem BioAssay (NCI)
#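 Compound exposure: 48 hours, 5 concentrations, 96-well plates. GI50: concentration for 50% inhibition of growth. TGI marks complete inhibition of growth.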
# Experiments:
# Assay in all cases: DTP human tumour cell line panel, 48 h
# NCI-H460 lung = tested on: NCI-H460 lung
# NCI-H522 lung = tested on: NCI-H522 lung
# NCI/ADR-RES ovarian = tested on: NCI/ADR-RES ovarian
# OVCAR-3 ovarian = tested on: OVCAR-3 ovarian
# OVCAR-4 ovarian = tested on: OVCAR-4 ovarian
# OVCAR-5 ovarian = tested on: OVCAR-5 ovarian
# OVCAR-8 ovarian = tested on: OVCAR-8 ovarian
# PC-3 prostate = tested on: PC-3 prostate
# RPMI-8226 leukemia = tested on: RPMI-8226 leukemia
# RXF 393 renal = tested on: RXF 393 renal
# SF-268 CNS = tested on: SF-268 CNS
# SF-295 CNS = tested on: SF-295 CNS
# SF-539 CNS = tested on: SF-539 CNS
# SK-MEL-2 melanoma = tested on: SK-MEL-2 melanoma
# SK-MEL-28 melanoma = tested on: SK-MEL-28 melanoma
# SK-MEL-5 melanoma = tested on: SK-MEL-5 melanoma
# SK-OV-3 ovarian = tested on: SK-OV-3 ovarian
# SN12C renal = tested on: SN12C renal
# SNB-19 CNS = tested on: SNB-19 CNS
# SNB-75 CNS = tested on: SNB-75 CNS
# SW-620 colon = tested on: SW-620 colon
# T-47D breast = tested on: T-47D breast
# TK-10 renal = tested on: TK-10 renal
# U251 CNS = tested on: U251 CNS
# UACC-257 melanoma = tested on: UACC-257 melanoma
# UACC-62 melanoma = tested on: UACC-62 melanoma
# UO-31 renal = tested on: UO-31 renal
compound,measurement,setting,value
O=C1c2ccccc2-c2nnc(-c3ccc(Br)cc3)cc21,GI50,NCI-H460 lung,> 100 µM
same,TGI,NCI-H460 lung,> 100 µM
same,GI50,NCI-H522 lung,> 100 µM
same,TGI,NCI-H522 lung,> 100 µM
same,GI50,NCI/ADR-RES ovarian,> 100 µM
same,TGI,NCI/ADR-RES ovarian,> 100 µM
same,GI50,OVCAR-3 ovarian,> 100 µM
same,TGI,OVCAR-3 ovarian,> 100 µM
same,GI50,OVCAR-4 ovarian,> 100 µM
same,TGI,OVCAR-4 ovarian,> 100 µM
same,GI50,OVCAR-5 ovarian,> 100 µM
same,TGI,OVCAR-5 ovarian,> 100 µM
same,GI50,OVCAR-8 ovarian,> 100 µM
same,TGI,OVCAR-8 ovarian,> 100 µM
same,GI50,PC-3 prostate,> 100 µM
same,TGI,PC-3 prostate,> 100 µM
same,GI50,RPMI-8226 leukemia,> 100 µM
same,TGI,RPMI-8226 leukemia,> 100 µM
same,GI50,RXF 393 renal,> 100 µM
same,TGI,RXF 393 renal,> 100 µM
same,GI50,SF-268 CNS,> 100 µM
same,TGI,SF-268 CNS,> 100 µM
same,GI50,SF-295 CNS,> 100 µM
same,TGI,SF-295 CNS,> 100 µM
same,GI50,SF-539 CNS,> 100 µM
same,TGI,SF-539 CNS,> 100 µM
same,GI50,SK-MEL-2 melanoma,> 100 µM
same,TGI,SK-MEL-2 melanoma,> 100 µM
same,GI50,SK-MEL-28 melanoma,> 100 µM
same,TGI,SK-MEL-28 melanoma,> 100 µM
same,GI50,SK-MEL-5 melanoma,> 100 µM
same,TGI,SK-MEL-5 melanoma,> 100 µM
same,GI50,SK-OV-3 ovarian,> 100 µM
same,TGI,SK-OV-3 ovarian,> 100 µM
same,GI50,SN12C renal,> 100 µM
same,TGI,SN12C renal,> 100 µM
same,GI50,SNB-19 CNS,> 100 µM
same,TGI,SNB-19 CNS,> 100 µM
same,GI50,SNB-75 CNS,> 100 µM
same,TGI,SNB-75 CNS,> 100 µM
same,GI50,SW-620 colon,> 100 µM
same,TGI,SW-620 colon,> 100 µM
same,GI50,T-47D breast,48.8 µM
same,TGI,T-47D breast,> 100 µM
same,GI50,TK-10 renal,> 100 µM
same,TGI,TK-10 renal,> 100 µM
same,GI50,U251 CNS,> 100 µM
same,TGI,U251 CNS,> 100 µM
same,GI50,UACC-257 melanoma,> 100 µM
same,TGI,UACC-257 melanoma,> 100 µM
same,GI50,UACC-62 melanoma,> 100 µM
same,TGI,UACC-62 melanoma,> 100 µM
same,GI50,UO-31 renal,> 100 µM
same,TGI,UO-31 renal,> 100 µM
